Assay results: patent US4404230A, “4-Hydroxy-1,2-Benzisothiazol-3(2H)-one-1,1-dioxides and salts thereof” (priority 1980, dated 1983)

How the values were obtained:
taste testers [1] = assay: Determination of the threshold concentration (sweet taste); type: in vivo
Description: Aqueous solutions having concentrations of 1:12,500, 1:25,000, 1:50,000, and 1:100,000 were prepared of test compounds A, B and C and of comparison compounds X, Y and Z, and each was evaluated at 5 taste testers according to the following scoring system: Very sweet (=3 points), medium sweet (=2 points), weakly sweet (=1 point), and not sweet (=0 point). The tests were carried out as described by H. G. Schutz and F. J. Pilgrim in Food Research 22, 206 (1957). The dilution perceptible as sweet was defined as having the concentration at which the average value of the evaluation points reached 1.0 or more.

taste testers [2] = assay: Determination of the taste quality; type: in vivo
Description: The tests were performed in analogy to the method of DuBois, G. A. Crosby, R. A. Stephanson and R. E. Wingard Jr., J. Agric. […] The test compounds were used as aqueous solutions at a concentration which corresponds to an about 5% saccharose solution. As comparison compound saccharose was used. The tests were carried out under identical conditions. Only the characterization of the taste was evaluated, because the intensity was already determined in the preceding experiments. The following criteria were determined by each tester: Percentage sweet to percentage bitter to percentage another taste quality. Furthermore, the presence or absence of an after taste of the individual test compounds was determined. Each substance was tested twice with regard to five different determinations.

[3] = Acid-stability in 0.1 N hydrochloric acid; type: physicochemical; details: 1% in 0.1 N hydrochloric acid, room temperature, 27 days
Description: (§1) For the stability test, substance B at a concentration of 1% was dissolved in 0.1 N hydrochloric acid and kept at room temperature for 27 days. […] The solid substance was furthermore tested in daylight and at 60° C. in the absence and in the presence of light for 4 weeks.

[4] = Stability of the solid substance in daylight and at 60° C.; type: physicochemical; details: daylight and 60° C., absence and presence of light, 4 weeks
Description: as §1

rats [5] = assay: Effect on motility of rats (sedative or stimulating effect); type: in vivo, Chbb:THOM-rats; details: 100 mg/kg p.o.
Description: In analogy to the method described by Fuhrer and Feldhofen (Arzneimittel-Forschung 11, 1027, 1961) substance B was tested on 6 female Chbb:THOM-rats (SPF) having a body weight of 160-190 gm, after administration of 100 mg/kg p.o. in a suspension of 1% tylose. The motility of the rats in cages was measured for 30 minutes one hour after administration of the test compound. A control group received only tylose. The change in motility given in percent with regard to that of the control group was determined.

mice = assay: Effect on maximum electroshock convulsions in mice; type: in vivo, Chbb:NMRI-mice; details: 200 mg/kg p.o.; for Number of protected animals: N = 10
Description: According to Swinyard, Brown and Goodman [J. Pharmacol. exp. Ther. 106, 319 (1952)], 200 mg/kg of substance B in aqua dist. solution were administered perorally to 10 male Chbb:NMRI-mice (SPF). After 30, 150 and 300 minutes tonic extensor spasms were induced by alternating current via head-electrodes (50 mA, 50 Hz, 2 sec. duration). Tonic extensor spasms of the extremities cannot be observed after treatment with substances having an anticonvulsive activity.

rats [6] = assay: Effect on the kaolin edema in rats; type: in vivo, Chbb:THOM-rats; details: 100 mg/kg p.o.
Description: According to Hillebrecht [Arzneimittel-Forschung 4, 607 (1954)] an edema was induced in 20 Chbb:THOM-rats (SPF) of both sexes having a body weight of 125-150 gm by subplantar injection of 0.05 ml of a 10% kaolin suspension in the hind paw. 30 minutes before, 100 mg/kg of substance B as aqua dist. solution was orally administered to 10 animals. Ten control animals received only the solvent. The thickness of the paw was measured before the administration of the test compound and 5 hours after administration. The edema-altering effect was expressed in percent of the average degree of swelling of the control animals.

[7] = tested on: Escherichia coli ATCC 9637; assay: Bacteriostasis, serial dilution test; type: cell-based; details: 320 μg/ml
Description: (§2) Substance B was tested with regard to its bacteria- and fungi-inhibiting effect by the serial dilution test and agar diffusion test.

[8] = tested on: Pseudomonas aeruginosa Hbg.; assay: Bacteriostasis, serial dilution test; type: cell-based; details: 320 μg/ml
Description: as §2

Sc. pyogenes ATCC 8688 = assay: Bacteriostasis, serial dilution test; type: cell-based; details: 320 μg/ml
Description: as §2

[9] = tested on: Serratia marcescens ATCC 13880; assay: Bacteriostasis, serial dilution test; type: cell-based; details: 320 μg/ml
Description: as §2

[10] = tested on: Staphylococcus aureus SG 511; assay: Bacteriostasis, serial dilution test; type: cell-based; details: 320 μg/ml
Description: as §2

Streptococcus Aronson = assay: Bacteriostasis, serial dilution test; type: cell-based; details: 320 μg/ml
Description: as §2

eye of the rabbit = assay: Local compatibility in the eye of the rabbit (mucosa compatibility); type: in vivo
From the text: Groups of 4 rabbits each of both sexes were given 1 drop of a 1% solution of substance B in aqua dist. into the conjunctival sack of the eye. […] The second eye of each animal served as control.

Rat = assay: Test for acute toxicity, rat; details: for Animals which died: 6 animals
Description: The acute toxicity was determined after oral administration of substance B to male and female mice, rats and dogs. The substance was administered to mice and rats in the form of a suspension in tylose and to dogs in the form of a solution in water.

rats [11] = assay: Test for subacute toxicity in the rat; type: in vivo, Chbb:Thom-rats; details: 750 mg/kg daily, 5 weeks
Description: The test was carried out on 10 male and 10 female Chbb:Thom-rats. During a period of 5 weeks 750 mg/kg of substance B were administered to the animals daily. […] After the 5 weeks the animals were killed, and the following organs were dissected for histological examination: heart, lungs, liver, spleen, suprarenals, brain, kidney and pancreas.

With `O=C1NS(=O)(=O)c2cccc(O)c21.[Na]` the “Average value of evaluation points” value (taste testers [1]; concentration 1:25000) was 2.6 points, the “Average value of evaluation points” value (taste testers [1]; concentration 1:50000) was 1.2 points and the “Average value of evaluation points” value (taste testers [1]; concentration 1:100000) was 0.0 points. The “purity of the taste” value (taste testers [2]) was 94-96%, the After taste (taste testers [2]; 1:10000, 10 determinations) was 5 and the Percentage bitter (taste testers [2]; 1:10000, 10 determinations) was 2%. For the same compound, the Percentage other taste (taste testers [2]; 1:10000, 10 determinations) was 2%, the Percentage sweet (taste testers [2]; 1:10000, 10 determinations) was 96% and the “stability in acid medium” value [3] was “No changes could be detected”. For the same compound, the “stability of solid substance” value [4] was “No changes could be detected either”, the “effect on motility of rats (in words)” value (rats [5]) was “does not affect the motility of the rats” and the Motility of rats (rats [5]; 60-90 min) was 235 ± 58 contacts/animal. The “% motility” value (rats [5]; 60-90 min, vs control) was 113%, the “anticonvulsive activity (in words)” value (mice) was “does not show any anticonvulsive activity” and the “Number of protected animals” value (mice; 30 min) was 0. The “Number of protected animals” value (mice; 150 min) was 0, the “Number of protected animals” value (mice; 300 min) was 0 and the “antiexudative effect (in words)” value (rats [6]) was “does not show any antiexudative effect in rats”. The “Average degree of swelling” value (rats [6]; 5 hours) was 239.0, the Inhibition in % (rats [6]; 5 hours) was 13.7% and the inhibiting effect [7] was “did not show any inhibiting effect”. The inhibiting effect [8] was “did not show any inhibiting effect”, the inhibiting effect (Sc. pyogenes ATCC 8688) was “did not show any inhibiting effect” and the inhibiting effect [9] was “did not show any inhibiting effect”. For the same compound, the inhibiting effect [10] was “did not show any inhibiting effect”, the inhibiting effect (Streptococcus Aronson) was “did not show any inhibiting effect” and the “change in the pupil” value (eye of the rabbit; 1% solution) was “no change in the pupil”. For the same compound, the “irritation of the conjunctiva” value (eye of the rabbit; 1% solution) was “No irritation of the conjunctiva”, the “change in the pupil” value (eye of the rabbit; 10%) was “no change in the pupil” and the “irritation of the conjunctiva” value (eye of the rabbit; 10%) was “No irritation of the conjunctiva”. For the same compound, the “incompatibility when dropped into the eye (in words)” value (eye of the rabbit; rabbit, in vivo) was “does not show any incompatibility”, the Animals which died (Rat; 10 g/kg oral, 1 day) was 0 and the Animals which died (Rat; 10 g/kg oral, 7 days) was 0. For the same compound, the Animals which died (Rat; 10 g/kg oral, 14 days) was 0, the “deaths (in words)” value (Rat; 10 g/kg oral, during the observation time) was “no animals died” and the behavior (Rat; rat, in vivo, po) was “completely normal behavior”. For the same compound, the toxic symptoms (Rat; rat, in vivo, po) was “no toxic symptoms could be observed”, the behavior (rats [11]) was “normal behavior” and the spontaneous deaths (rats [11]) was “No spontaneous deaths could be observed”. For the same compound, the “histological examination of organs” value (rats [11]; heart, lungs, liver, spleen, suprarenals, brain, kidney, pancreas) was “did not show any pathological findings”.
